Assay results as given in patent US7531537B2, “Benzofuran derivative” (Mitsubishi Tanabe Pharma Corporation, priority 2002, dated 2009).
pIC50: −log10 of the molar value.

Tests used:
[1] = target: activated blood coagulation factor X (FXa) (Homo sapiens, UniProt P00742); assay: FXa inhibitory effect; assay type: biochemical
distribution volume = conditions: in vivo

Chain of activated blood coagulation factor X (FXa) (P00742 235-488 limits assumed): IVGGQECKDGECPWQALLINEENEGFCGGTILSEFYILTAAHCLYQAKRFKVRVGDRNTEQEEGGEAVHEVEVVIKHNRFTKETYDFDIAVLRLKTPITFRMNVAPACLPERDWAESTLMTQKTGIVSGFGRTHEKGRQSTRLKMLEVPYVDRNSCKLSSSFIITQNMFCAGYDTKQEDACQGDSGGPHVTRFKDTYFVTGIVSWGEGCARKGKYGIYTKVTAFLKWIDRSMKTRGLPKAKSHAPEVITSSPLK
Chain of activated blood coagulation factor X (FXa) (P00742 41-179 partner limits assumed): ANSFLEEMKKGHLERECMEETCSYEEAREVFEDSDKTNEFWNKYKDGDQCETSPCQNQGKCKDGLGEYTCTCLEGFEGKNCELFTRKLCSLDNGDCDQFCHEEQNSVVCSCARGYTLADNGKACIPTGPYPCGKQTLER

## CN(C)C(=O)c1ccc2oc(C(=O)Nc3ccc(Cl)cn3)c(NC(=O)[C@H]3CC[C@H](N(C)C=O)CC3)c2c1 [trans-5-dimethylaminocarbonyl-3-[4-(N-formyl-N-methylamino)-cyclohexylcarbonylamino]-N-(5-chloropyridin-2-yl)-benzofuran-2-carboxamide]
[1]
  pIC50: > 7.00
Distribution volume
  distribution volume: 0.8 L/kg
